Columns and labels:
Format in all cases: physicochemical
[1] = Form change/disproportionation of residual solids by XRPD after suspension in water or Medisca Oral Mix; settings: for Form change (residual solids, XRPD): RT; for Form of the residual solids in Medisca Oral Mix / Form of the residual solids in water: after 1 hour
Experimental: The kinetic solubility was evaluated for nicotinate, phosphate, L-tartrate, and fumarate salts and/or co-crystals of sepiapterin in water and […] Oral Mix. X-ray powder diffraction (XRPD) was performed for the residual solids to identify form change/disproportionation. Solids were suspended into the media with target conc. of 7 mg/mL (calculated by freebase). […] Oral Mix after 1 hour. […] Oral Mix.

[2] = Solid form stability study of salts and/or co-crystals at 25° C./60% RH and 40° C./75% RH
Experimental: The stability of the prepared salts and/or co-crystals was analyzed after 1 and 2 weeks at 25° C. and 60% relative humidity and 40° C. and 75% relative humidity. […] None of the phosphate, tartrate, or nicotinate salts and/or co-crystals underwent a form change during the stability testing, and each of them retained greater than 97% purity over the two weeks of the study. In fact, both the tartrate and nicotinate both retained greater than 99% purity.

[3] = Kinetic solubility in water and Medisca Oral Mix (HPLC solubility, purity and pH of supernatant); settings: RT; for Purity (area %) of supernatant: for reference only; for Solubility: calculated using freebase, target conc. 7 mg/mL
Experimental: The kinetic solubility was evaluated for nicotinate, phosphate, L-tartrate, and fumarate salts and/or co-crystals of sepiapterin in water and […] Oral Mix. X-ray powder diffraction (XRPD) was performed for the residual solids to identify form change/disproportionation. Solids were suspended into the media with target conc. of 7 mg/mL (calculated by freebase).

[4] = Medisca Oral Mix, 1 hr, listed as fumarate salt and/or co-crystal
[5] = Medisca Oral Mix, 4 hr, listed as fumarate salt and/or co-crystal
[6] = Medisca Oral Mix, 24 hr, listed as fumarate salt and/or co-crystal
[7] = Water, 1 hr, listed as fumarate salt and/or co-crystal
[8] = Water, 4 hr, listed as fumarate salt and/or co-crystal
[9] = Water, 24 hr, listed as fumarate salt and/or co-crystal
[10] = Medisca Oral Mix, 1 hr, listed as phosphate salt and/or co-crystal
[11] = Medisca Oral Mix, 4 hr, listed as phosphate salt and/or co-crystal
[12] = Medisca Oral Mix, 24 hr, listed as phosphate salt and/or co-crystal
[13] = Water, 1 hr, listed as phosphate salt and/or co-crystal
[14] = Water, 4 hr, listed as phosphate salt and/or co-crystal
[15] = Water, 24 hr, listed as phosphate salt and/or co-crystal

C[C@H](O)C(=O)C1=Nc2c(nc(N)[nH]c2=O)NC1 [Fumarate, sepiapterin]
Disproportionation in the disproportionation study [1]: no evidence of disproportionation | Form change (residual solids, XRPD) [1, 4]: No ** | Form change (residual solids, XRPD) [1, 5]: No ** | Form change (residual solids, XRPD) [1, 6]: No ** | Form of the residual solids in Medisca Oral Mix ([1]; Medisca Oral Mix, listed as fumarate salt and/or co-crystal): crystallinity of residual solids decreased | Form change (residual solids, XRPD) [1, 7]: No | Form change (residual solids, XRPD) [1, 8]: No | Form change (residual solids, XRPD) [1, 9]: No | Form of the residual solids in water ([1]; listed as fumarate salt and/or co-crystal): no form change was observed | Stability in the solid form stability study of Example 2 [2]: high stability | Form change ([2]; 1 week, 25° C./60% RH): No | Purity (Area %) ([2]; 1 week, 25° C./60% RH): 99.39 Area % | Purity vs. initial (%) ([2]; 1 week, 25° C./60% RH): 99.9% | Form change ([2]; 1 week, 40° C./75% RH): No | Purity (Area %) ([2]; 1 week, 40° C./75% RH): 99.15 Area % | Purity vs. initial (%) ([2]; 1 week, 40° C./75% RH): 99.7% | Purity (Area %) ([2]; 2 weeks, 25° C./60% RH): 99.25 Area % | Purity vs. initial (%) ([2]; 2 weeks, 25° C./60% RH): 99.7% | Purity (Area %) ([2]; 2 weeks, 40° C./75% RH): 98.98 Area % | Purity vs. initial (%) ([2]; 2 weeks, 40° C./75% RH): 99.5% | Purity (Area %) ([2]; Initial): 99.46 Area % | Observation ([3]; Medisca Oral Mix, 1 hr): Turbid | Purity (area %) of supernatant [3, 4]: 99.74 area % | pH [3, 4]: 4.0 | Observation ([3]; Medisca Oral Mix, 4 hr): Turbid | Purity (area %) of supernatant [3, 5]: 99.60 area % | pH [3, 5]: 4.0 | Observation ([3]; Medisca Oral Mix, 24 hr): Turbid | Purity (area %) of supernatant [3, 6]: 96.54 area % | pH [3, 6]: 4.0 | Observation ([3]; Water, 1 hr): Turbid | Purity (area %) of supernatant [3, 7]: 98.39 area % | pH [3, 7]: 3.1 | Observation ([3]; Water, 4 hr): Turbid | Purity (area %) of supernatant [3, 8]: 98.19 area % | pH [3, 8]: 3.1 | Observation ([3]; Water, 24 hr): Turbid | Purity (area %) of supernatant [3, 9]: 95.43 area % | pH [3, 9]: 3.1

C[C@H](O)C(=O)C1=Nc2c(nc(N)[nH]c2=O)NC1 [Phosphate, sepiapterin]
Form change (residual solids, XRPD) [1, 10]: Yes** | Form change (residual solids, XRPD) [1, 11]: Yes** | Form change (residual solids, XRPD) [1, 12]: Yes** | Form of the residual solids in Medisca Oral Mix ([1]; Medisca Oral Mix): converted to freebase | Form change (residual solids, XRPD) [1, 13]: Yes | Form change (residual solids, XRPD) [1, 14]: Yes | Form change (residual solids, XRPD) [1, 15]: Yes | Form of the residual solids in water [1]: converted to freebase | Stability compared with the other salts and/or co-crystals tested [2]: noticeably more stable than the others | Underwent a form change during the stability testing ([2]; 1 and 2 weeks, 25° C./60% RH and 40° C./75% RH): None | Form change ([2]; 1 week, 25° C./60% RH): No | Purity (Area %) ([2]; 1 week, 25° C./60% RH): 95.35 Area % | Purity vs. initial (%) ([2]; 1 week, 25° C./60% RH): 98.6% | Form change ([2]; 1 week, 40° C./75% RH): No | Purity (Area %) ([2]; 1 week, 40° C./75% RH): 95.91 Area % | Purity vs. initial (%) ([2]; 1 week, 40° C./75% RH): 99.1% | Form change ([2]; 2 weeks, 25° C./60% RH): No | Purity (Area %) ([2]; 2 weeks, 25° C./60% RH): 95.87 Area % | Purity vs. initial (%) ([2]; 2 weeks, 25° C./60% RH): 99.1% | Form change ([2]; 2 weeks, 40° C./75% RH): No | Purity (Area %) ([2]; 2 weeks, 40° C./75% RH): 94.50 Area % | Purity vs. initial (%) ([2]; 2 weeks, 40° C./75% RH): 97.7% | Purity (Area %) ([2]; Initial): 96.75 Area % | Observation ([3]; Medisca Oral Mix, 1 hr): Turbid | Solubility [3, 10]: 2500 µg/mL | Purity (area %) of supernatant [3, 10]: 99.23 area % | pH [3, 10]: 3.1 | Observation ([3]; Medisca Oral Mix, 4 hr): Turbid | Solubility [3, 11]: 3200 µg/mL | Purity (area %) of supernatant [3, 11]: 98.95 area % | pH [3, 11]: 3.1 | Observation ([3]; Medisca Oral Mix, 24 hr): Turbid | Purity (area %) of supernatant [3, 12]: 87.63 area % | pH [3, 12]: 3.1 | Observation ([3]; Water, 1 hr): Turbid | Purity (area %) of supernatant [3, 13]: 89.92 area % | pH [3, 13]: 2.1 | Observation ([3]; Water, 4 hr): Turbid | Purity (area %) of supernatant [3, 14]: 89.52 area % | pH [3, 14]: 2.1 | Observation ([3]; Water, 24 hr): Turbid | Purity (area %) of supernatant [3, 15]: 82.64 area % | pH [3, 15]: 2.1

— patent US12637465B2, “Pharmaceutically acceptable salts of sepiapterin” (PTC Therapeutics MP, Inc., priority 2018, dated 2026)
